Results as given in article PMC8434884 (Journal of medicinal chemistry, 2020).

Tests used:
[1] = target: T1, human 5-HT2CR (unedited INI isoform) (Homo sapiens, UniProt P28335); conditions: 1 nM, 5-HT-induced Cai2+ release, h5-HT2CR-CHO cells
T1 sequence (P28335 33-458): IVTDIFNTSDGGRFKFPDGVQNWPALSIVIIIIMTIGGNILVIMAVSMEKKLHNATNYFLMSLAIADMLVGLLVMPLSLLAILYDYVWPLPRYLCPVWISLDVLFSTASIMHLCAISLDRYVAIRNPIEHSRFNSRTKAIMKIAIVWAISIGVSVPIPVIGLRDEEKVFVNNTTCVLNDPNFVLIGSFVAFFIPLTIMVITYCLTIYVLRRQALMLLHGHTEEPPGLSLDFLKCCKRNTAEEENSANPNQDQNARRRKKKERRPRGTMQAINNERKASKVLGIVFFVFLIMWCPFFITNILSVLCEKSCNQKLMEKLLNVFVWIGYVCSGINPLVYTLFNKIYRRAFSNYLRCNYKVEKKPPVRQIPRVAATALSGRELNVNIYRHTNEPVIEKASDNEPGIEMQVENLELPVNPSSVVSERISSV

[2] = target: T1, human 5-HT2CR (unedited INI isoform); conditions: titration studies; cited from earlier work
male Sprague–Dawley rats = experiment: WAY163909 versus saline two-lever drug discrimination assay; assay type: in vivo, rat; conditions: SB242084 0.5 mg/kg pretreatment, 13/13 rats

SMILES: O=C(NC(CO)C(O)c1ccccc1)C1C[C@@H](c2ccccc2)CCN1 (stereo in doubt) [Compound (2R,4S)-11, (2S,4S)-N-((1S,2S)-1,3-Dihydroxy-1-phenylpropan-2-yl)-4-phenylpiperidine-2-carboxamide]
- 5-HT2CR positive allosteric modulator activity (in words) [1]: modest allosteric activity

SMILES: O=C(NCCN1CCOCC1)[C@@H]1C[C@H](c2ccccc2)CCN1 (racemic) [Compound 16, (2,4-cis)-N-(2-Morpholinoethyl)-4-phenylpiperidine-2-carboxamide]
- 5-HT2CR positive allosteric modulator activity (in words) [1]: did not result in positive allosteric effects

SMILES: CCCCCCCCCCC[C@@H]1CCN[C@H](C(=O)N[C@@H]([C@H]2O[C@H](SC)[C@H](O)[C@@H](O)[C@H]2O)[C@H](C)Cl)C1.Cl [Compound 1]
- shift of the 5-HT-evoked Cai2+ response curve [2]: evoked a leftward shift

SMILES: O=C(NC(CO)CO)[C@@H]1C[C@H](c2ccccc2)CCN1 (racemic) [Compound 14, (2,4-cis)-N-(1,3-Dihydroxypropan-2-yl)-4-phenylpiperidine-2-carboxamide]
- 5-HT2CR positive allosteric modulator activity (in words) [1]: did promote PAM activity

SMILES: Cc1cc2c(cc1Cl)N(C(=O)Nc1ccc(Oc3cccnc3C)nc1)CC2.Cl.Cl [SB242084, 6-chloro-5-methyl-1-[[2-(2-methylpyrid-3-yloxy)pyrid-5-yl]carbamoyl]indoline dihydrochloride, reference compound]
- blockade of substitution of 12 (2 mg/kg) plus WAY163909 (0.5 mg/kg) (male Sprague–Dawley rats): completely prevented the substitution

SMILES: O=C(NCCCN1CCOCC1)[C@@H]1C[C@H](CCc2ccccc2)CCN1 (racemic) [Compound 37, (2,4-cis)-N-(3-Morpholinopropyl)-4-phenethylpiperidine-2-carboxamide]
- 5-HT2CR positive allosteric modulator activity (in words) [1]: did produce PAM effects

SMILES: O=C(NCCN1CCOCC1)[C@@H]1C[C@H](CCc2ccccc2)CCN1 (racemic) [Compound 36, (2,4-cis)-N-(2-Morpholinoethyl)-4-phenethylpiperidine-2-carboxamide]
- 5-HT2CR positive allosteric modulator activity (in words) [1]: did not produce PAM effects

SMILES: O=C(NCCN1CCOCC1)[C@@H]1C[C@H](CCC2CCCCC2)CCN1 (racemic) [Compound 34, (2,4-cis)-4-(2-Cyclohexylethyl)-N-(2-morpholinoethyl)piperidine-2-carboxamide]
- 5-HT2CR positive allosteric modulator activity (in words) [1]: did not produce PAM effects

SMILES: O=C(NCCCN1CCOCC1)[C@@H]1C[C@H](CCC2CCCCC2)CCN1 (racemic) [Compound 35, (2,4-cis)-4-(2-Cyclohexylethyl)-N-(3-morpholinopropyl)-piperidine-2-carboxamide]
- 5-HT2CR positive allosteric modulator activity (in words) [1]: did produce PAM effects

SMILES: O=C(NCCN1CCOCC1)[C@@H]1C[C@H](C2CCCCC2)CCN1 (racemic) [Compound 17, (2,4-cis)-4-Cyclohexyl-N-(2-morpholinoethyl)piperidine-2-carboxamide]
- 5-HT2CR positive allosteric modulator activity (in words) [1]: did not result in positive allosteric effects

SMILES: O=C(NC(CO)CO)[C@@H]1C[C@H](C2CCCCC2)CCN1 (racemic) [Compound 15, (2,4-cis)-4-Cyclohexyl-N-(1,3-dihydroxypropan-2-yl)piperidine-2-carboxamide]
- 5-HT2CR positive allosteric modulator activity (in words) [1]: did not result in positive allosteric effects
